What all share (format): cell-based
The target in assay [1] is T1, SMARCA2 (Homo sapiens, UniProt P51531). The assay can be described thus: MSD SMARCA2 degradation in A549 cell line. As to conditions: 24 h; for Dmax: A549, A549 cells; for DC50: A549 cells, read-out: SMARCA2 MSD A549 degradation 24 h: Average external-Abs DC50. The method, boiled down: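 A549 cells treated 24 h with compound at final 0.152-1000 nM (3-fold series, DMSO control). Lysates analyzed by MSD immunoassay using anti-SMARCA2/BRM detection and SULFO-TAG secondary antibodies; maximal degradation (Dmax %) reported as letter bins.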

In assay [2] the target is T1, SMARCA2. The assay can be described thus: SMARCA2 Western blot MV4-11 degradation. Particulars: 24 h; for Dmax: MV4-11, MV4-11 cells, read-out: SMARCA2 WB MV411 degradation 24 h: Average Dmax %; for DC50: MV4-11 cells, read-out: SMARCA2 WB MV411 degradation 24 h: Average external-Abs DC50. As for the experimental part:
Cells were seeded into 6-well plates (MV4-11: 4×10^6 cells/well/1 ml) and 1 ml of 2× compound solution was added into the well to make the final concentration and the plates were mixed well and incubated for 24 hours (No cytotoxicity was observed). The cell were collected with media and spun at 3000 rpm for 5 minutes. The supernatant was aspirated and the well and the cells were washed with cold PBS once and combined for centrifugation again; the supernatant aspirated again. 200 ul pre-chilled RIPAlysis buffer (Boston BioProducts BP-115D) with protease/phosphatase inhibitor (Roche 05892791001/Roche 04906837001) was directly added into the tube to lyze the cells for 20 minutes on ice. The cell lysate were collected into EP tubes and spun at 13000 rpm for 20 minutes and 72 ul supernatant was transferred to a fresh EP tube containing 18 ul of 5× loading buffer (Beyotime Bio P0015) to make the loading samples. The samples were heated to 100° C. for 10 minutes and cooled to RT and microcentrifuged. 20 ul of samples were loaded onto SDS-PAGE gel (Novex, WG1402BOX) and the gel was run at 80 V for 20 minutes and 120 V for 1.5 hours. The samples were electrotransfer to a NC membrane using wet-transfer method with 250 mA for 2.5 hours. The membrane was blocked with LICOR blocking buffer (LI-COR, 927-50000) for 1 hour. The membrane was washed three times with TBST (CST #9997S), 5 minutes each. Incubation was performed with primary antibody prepared in blocking buffer with 0.1% Tween-20 (Solarbio, P8220) at 4° C. overnight (Anti-SMARCA2/BRM antibody (ab15597) 1:500; Anti-BRG1 antibody [EPR3912] (ab108318) 1:1000; Rabbit anti-Baf180 antibody [EPR15860] (Abcam, ab196022) 1:1000; mouse anti-beta-Actin (8H10D10) (CST #3700) 1:10000). The membrane was washed three times with TBST, 5 minutes each. Incubation with secondary antibody was performed for 1 hour at RT (anti-rabbit IgG (Licor, 926-32211) 1:5000; anti-mouse IgG (LI-COR, 926-68070) 1:5000). The membrane was washed three times with TBST, 5 minutes each and lastly the LiCOR was read.
The letter codes for the percentage of SMARCA degradation after 24 hours (Dmax %) include: A (>90% degradation), B (>70-90% degradation), C (50-70% degradation), and D (<50% degradation).
In general terms: In western blotting, separated proteins are transferred to a membrane and probed.

The target of the next assay is T2, SMARCA4 (Homo sapiens, UniProt P51532).
T2 construct: SMARCA2 and SMARCA4 protein degradation in MV4-11 cells; endogenous in cells; host or cells: MV4-11
The assay can be described thus: SMARCA4 Western blot MV4-11 degradation. As to conditions: 24 h; for Dmax: MV4-11, MV4-11 cells, read-out: SMARCA4 WB MV411 degradation 24 h: Average Dmax %; for DC50: MV4-11 cells, read-out: SMARCA4 WB MV411 degradation 24 h: Average external-Abs DC50. The method, boiled down: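 MV4-11 cells treated with compound for 24 h, lysed in RIPA with protease/phosphatase inhibitors, and SMARCA2 and SMARCA4 (BRG1) levels assessed by Western blot with β-actin loading control and LI-COR fluorescent read-out. Maximal degradation (Dmax %) after 24 h binned into letter codes.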

This note sets out measurements from patent US12624044B2, “SMARCA degraders and uses thereof” (Kymera Therapeutics, Inc., priority 2019, dated 2026).

The structures appear in SMILES notation.

T1 sequence (P51531 whole entry): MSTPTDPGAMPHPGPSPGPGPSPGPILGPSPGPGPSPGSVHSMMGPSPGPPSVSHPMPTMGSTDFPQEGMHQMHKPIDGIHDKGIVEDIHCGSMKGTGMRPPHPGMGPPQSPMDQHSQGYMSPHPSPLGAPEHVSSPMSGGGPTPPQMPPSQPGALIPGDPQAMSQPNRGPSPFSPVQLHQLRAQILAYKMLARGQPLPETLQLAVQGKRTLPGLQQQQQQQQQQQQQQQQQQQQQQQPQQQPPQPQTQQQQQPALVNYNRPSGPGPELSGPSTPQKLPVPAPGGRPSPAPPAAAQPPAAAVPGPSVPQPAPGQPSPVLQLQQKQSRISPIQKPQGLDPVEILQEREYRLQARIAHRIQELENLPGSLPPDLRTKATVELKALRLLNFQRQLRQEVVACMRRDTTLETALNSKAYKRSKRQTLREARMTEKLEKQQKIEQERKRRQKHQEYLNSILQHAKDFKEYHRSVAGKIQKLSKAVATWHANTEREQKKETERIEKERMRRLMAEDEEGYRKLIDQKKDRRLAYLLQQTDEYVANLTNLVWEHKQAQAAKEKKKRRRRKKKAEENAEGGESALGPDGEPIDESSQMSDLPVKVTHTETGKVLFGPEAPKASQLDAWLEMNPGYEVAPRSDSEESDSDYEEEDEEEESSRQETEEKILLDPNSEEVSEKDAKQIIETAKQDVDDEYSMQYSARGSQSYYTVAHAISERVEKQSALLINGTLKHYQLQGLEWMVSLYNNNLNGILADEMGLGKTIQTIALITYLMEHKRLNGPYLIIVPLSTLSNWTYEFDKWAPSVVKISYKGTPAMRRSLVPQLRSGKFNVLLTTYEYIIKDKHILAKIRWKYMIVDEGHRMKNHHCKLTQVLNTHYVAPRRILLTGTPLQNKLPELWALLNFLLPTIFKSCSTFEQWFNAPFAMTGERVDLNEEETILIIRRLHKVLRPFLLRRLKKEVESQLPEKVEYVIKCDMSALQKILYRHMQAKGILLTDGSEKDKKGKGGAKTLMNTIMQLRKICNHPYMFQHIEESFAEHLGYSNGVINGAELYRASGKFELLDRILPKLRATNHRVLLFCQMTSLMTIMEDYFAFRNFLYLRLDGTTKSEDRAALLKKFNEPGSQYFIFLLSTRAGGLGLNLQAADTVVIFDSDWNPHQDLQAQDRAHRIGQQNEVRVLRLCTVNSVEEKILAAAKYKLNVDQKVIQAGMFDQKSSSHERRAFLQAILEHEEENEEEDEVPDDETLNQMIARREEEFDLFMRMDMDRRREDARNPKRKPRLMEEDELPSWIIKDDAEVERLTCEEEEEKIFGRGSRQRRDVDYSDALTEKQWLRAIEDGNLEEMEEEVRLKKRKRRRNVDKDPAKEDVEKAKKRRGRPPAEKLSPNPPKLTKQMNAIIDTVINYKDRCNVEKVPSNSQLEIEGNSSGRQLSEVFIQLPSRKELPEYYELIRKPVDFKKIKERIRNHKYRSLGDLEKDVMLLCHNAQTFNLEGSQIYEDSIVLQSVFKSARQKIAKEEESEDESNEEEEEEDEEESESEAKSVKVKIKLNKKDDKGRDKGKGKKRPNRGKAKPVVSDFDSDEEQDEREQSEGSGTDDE
T2 sequence (P51532 whole entry): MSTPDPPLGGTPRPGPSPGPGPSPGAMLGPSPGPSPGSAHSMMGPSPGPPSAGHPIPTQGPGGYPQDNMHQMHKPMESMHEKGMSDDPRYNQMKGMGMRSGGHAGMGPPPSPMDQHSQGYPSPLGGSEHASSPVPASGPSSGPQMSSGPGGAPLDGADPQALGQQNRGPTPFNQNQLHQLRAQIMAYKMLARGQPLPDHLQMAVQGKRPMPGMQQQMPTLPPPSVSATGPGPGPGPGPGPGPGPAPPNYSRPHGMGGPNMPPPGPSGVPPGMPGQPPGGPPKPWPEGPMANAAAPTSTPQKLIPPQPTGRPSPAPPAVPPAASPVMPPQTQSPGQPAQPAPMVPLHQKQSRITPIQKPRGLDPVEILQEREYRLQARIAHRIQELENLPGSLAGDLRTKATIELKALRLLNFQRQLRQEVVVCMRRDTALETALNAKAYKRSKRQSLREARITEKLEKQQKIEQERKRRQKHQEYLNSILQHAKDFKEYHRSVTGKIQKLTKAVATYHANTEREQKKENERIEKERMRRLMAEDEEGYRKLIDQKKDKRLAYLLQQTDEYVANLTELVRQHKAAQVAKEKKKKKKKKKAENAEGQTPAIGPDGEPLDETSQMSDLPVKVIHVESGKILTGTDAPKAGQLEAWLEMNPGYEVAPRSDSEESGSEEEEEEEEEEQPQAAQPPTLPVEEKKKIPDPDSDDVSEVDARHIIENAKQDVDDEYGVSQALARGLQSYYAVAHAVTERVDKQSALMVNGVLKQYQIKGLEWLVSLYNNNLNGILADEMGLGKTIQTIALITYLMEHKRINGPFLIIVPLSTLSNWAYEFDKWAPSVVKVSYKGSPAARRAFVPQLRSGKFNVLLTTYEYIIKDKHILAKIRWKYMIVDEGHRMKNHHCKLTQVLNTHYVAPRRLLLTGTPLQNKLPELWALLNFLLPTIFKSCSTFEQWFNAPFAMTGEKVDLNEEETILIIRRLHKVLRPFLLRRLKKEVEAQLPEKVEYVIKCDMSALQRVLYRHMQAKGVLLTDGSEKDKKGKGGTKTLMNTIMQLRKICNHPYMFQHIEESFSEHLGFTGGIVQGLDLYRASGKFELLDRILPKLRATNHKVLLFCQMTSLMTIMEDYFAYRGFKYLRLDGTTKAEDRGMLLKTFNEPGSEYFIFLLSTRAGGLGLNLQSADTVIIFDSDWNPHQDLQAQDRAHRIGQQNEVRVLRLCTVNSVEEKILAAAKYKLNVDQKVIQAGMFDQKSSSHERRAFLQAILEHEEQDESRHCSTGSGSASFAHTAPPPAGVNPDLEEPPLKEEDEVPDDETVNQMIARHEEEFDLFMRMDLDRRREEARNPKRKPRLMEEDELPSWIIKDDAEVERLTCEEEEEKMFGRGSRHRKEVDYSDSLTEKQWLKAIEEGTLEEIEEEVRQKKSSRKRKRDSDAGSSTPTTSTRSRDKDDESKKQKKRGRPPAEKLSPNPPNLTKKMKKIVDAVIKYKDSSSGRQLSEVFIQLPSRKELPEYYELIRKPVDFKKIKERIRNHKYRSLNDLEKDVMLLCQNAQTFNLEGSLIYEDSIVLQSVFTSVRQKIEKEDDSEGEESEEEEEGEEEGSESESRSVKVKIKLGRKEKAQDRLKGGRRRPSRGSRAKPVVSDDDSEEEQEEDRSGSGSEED

Regarding `Cc1ncsc1-c1ccc(CNC(=O)[C@@H]2C[C@@H](O)CN2C(=O)[C@@H](NC(=O)CN2CCN([C@H]3CC[C@@H](c4cnc(N5C6CCC5CN(c5cc(-c7ccccc7O)nnc5N)C6)nc4)CC3)CC2)C(C)(C)C)cc1` (single isomer, unassigned) [I-445], the Dmax on SMARCA2 [1], at SMARCA2 [2] and on SMARCA4 was above 90% in each case. In addition, the DC50 – broadly, the midpoint of the concentration-degradation curve – on SMARCA2 [1] is 100 to 500 nM; at SMARCA2 [2] it was below 100 nM; on SMARCA4, below 100 nM.

Consider `Cc1ncsc1-c1ccc(CNC(=O)[C@@H]2C[C@@H](O)CN2C(=O)[C@@H](NC(=O)CN2CCN([C@H]3CC[C@H](c4cnc(N5C6CCC5CN(c5cc(-c7ccccc7O)nnc5N)C6)nc4)CC3)CC2)C(C)(C)C)cc1` (single isomer, unassigned) [I-446, (2S,4R)-1-((2S)-2-(2-(4-((1r,4S)-4-(2-(3-(3-amino-6-(2-hydroxyphenyl)pyridazin-4-yl)-3,8-diazabicyclo[3.2.1]octan-8-yl)pyrimidin-5-yl)cyclohexyl)piperazin-1-yl)acetamido)-3,3-dimethylbutanoyl)-4-hydroxy-N-(4-(4-methylthiazol-5-yl)benzyl)pyrrolidine-2-carboxamide], for which the Dmax on SMARCA2 [1], at SMARCA2 [2] and at SMARCA4 was above 90% each time.

Take `Cc1ncsc1-c1ccc(CNC(=O)[C@@H]2C[C@@H](O)CN2C(=O)[C@@H](NC(=O)CN2CCN([C@H]3CC[C@H](c4cnc(N5C6CCC5CN(c5cc(-c7ccccc7O)nnc5N)C6)nc4)CC3)CC2)C(C)(C)C)cc1` (single isomer, unassigned) [I-446]: the DC50 on SMARCA2 [1], on SMARCA2 [2] and on SMARCA4 was below 100 nM in each case.

Turning to `Cn1c(=O)n(C2CCC(=O)NC2=O)c2ccc(C3CC4(C3)CC(N3CCC(c5cnc(N6C7CCC6CN(c6cc(-c8ccccc8O)nnc6N)C7)nc5)CC3)C4)cc21` (single isomer, unassigned) [I-536 (P1), 3-(5-(6-(4-(2-(3-(3-amino-6-(2-hydroxyphenyl)pyridazin-4-yl)-3,8-diazabicyclo[3.2.1]octan-8-yl)pyrimidin-5-yl)piperidin-1-yl)spiro[3.3]heptan-2-yl)-3-methyl-2-oxo-2,3-dihydro-1H-benzo[d]imidazol-1-yl)piperidine-2,6-dione], the DC50 on SMARCA2 [1], on SMARCA2 [2] and on SMARCA4 was below 100 nM each time.

On to `Cn1c(=O)n(C2CCC(=O)NC2=O)c2ccc([C@H]3CC[C@@H](N4CCC(c5cnc(N6C7CCC6CN(c6cc(-c8ccccc8O)nnc6N)C7)nc5)CC4)CC3)cc21` (some centres unmarked) [I-277], for which the Dmax on SMARCA2 [1], on SMARCA2 [2] and at SMARCA4 was above 90% throughout. The DC50 at SMARCA2 [1], at SMARCA2 [2] and on SMARCA4 was below 100 nM in each case.

For the molecule `Cn1c(=O)n(C2CCC(=O)NC2=O)c2ccc([C@H]3CC[C@H](N4CCC(c5cnc(N6C7CCC6CN(c6cc(-c8ccccc8O)nnc6N)C7)nc5)CC4)CC3)cc21` (some centres unmarked) [I-291], the Dmax on SMARCA2 [1] and at SMARCA4 was above 90% throughout. Further, the DC50 at SMARCA2 [1], at SMARCA2 [2] and on SMARCA4 was below 100 nM each time.

For the molecule `Cn1c(=O)n(C2CCC(=O)NC2=O)c2cccc(C3CCC(N4CCC(n5cc(-c6cc(-c7ccccc7O)nnc6N)cn5)CC4)CC3)c21` (centres unmarked) [I-321], the Dmax on SMARCA2 [1], on SMARCA2 [2] and on SMARCA4 was above 90% each time. Besides, the DC50 at SMARCA2 [1], at SMARCA2 [2] and on SMARCA4 was below 100 nM in each case.

Regarding `Cc1ncsc1-c1ccc(CNC(=O)[C@@H]2C[C@@H](O)CN2C(=O)[C@@H](NC(=O)C2CCC(CN3CCC(n4cc(-c5cc(-c6ccccc6O)nnc5N)cn4)CC3)CC2)C(C)(C)C)cc1` (some centres unmarked) [I-327], the Dmax (as a rule, the greatest extent of degradation seen) at SMARCA2 [1] is above 90%; on SMARCA2 [2], above 90%; on SMARCA4 it was below 50%. In addition, the DC50 at SMARCA2 [1] was 100 to 500 nM; at SMARCA2 [2] it was below 100 nM; on SMARCA4, above 1000 nM.
